Here are results for 2 compounds from US20090209633A1, “Treatment of Pain With Resiniferatoxin and Related Analogs” (priority 2006, published 2009).

For assay [1], the target named is T1, rat TRPV1 (Rattus norvegicus, UniProt O35433).
T1 construct: expressed in transfected cells; host or cells: Xenopus laevis oocytes injected with TRPV1 cRNA
Put plainly: Whole-cell currents in Xenopus laevis oocytes expressing TRPV1 (double-electrode voltage clamp). In kind it is cell-based. Particulars: ruthenium red 100 μM; RTX 10 nM repeated application. As to the method:
Rat TRPV1 dcRNA. Cloned rat TRPV1 was obtained from the Julius Lab at the University of California San Francisco. TRPV1 cRNA was obtained using standard techniques known to those of skill in the art.
(§1) Electrophysiology. Whole-cell and single-channel currents were recorded from rat DRG neurons in culture and from Xenopus laevis oocytes injected with rat TRPV1 cRNA. Animals were cared for according to the standards of the National Institutes of Health (NIH). All animal use protocols were approved by Southern Illinois University School of Medicine Animal Care Committee.
Oocytes were obtained by an abdominal incision after anaesthetizing the frog by immersion in a 0.05% solution of 3-aminobenzoic acid ethyl ester (MS222). Animals were killed by a subcutaneous injection of a 2% solution of MS222 according to NIH guidelines. One day after separating the oocytes from the follicular layer, 50-70 nl TRPV1 cRNA was injected using a Drummond Nanoject (Drummond Scientific Co., Broomall, Pa., USA). Oocytes were used for recording from 3 days after the injection. Double-electrode voltage clamp was performed using a Warner amplifier (Warner Instruments, Hamden, Conn., USA). Data were digitized and stored on videotape or directly stored on the computer using a LabView interface (National Instruments, Austin, Tex., USA). Experiments were performed at 21-23° C. Oocytes were placed in a Perspex chamber superfused (5-10 ml min^−1) with Ca^2+-free Ringer solution containing (mM): NaCl 100, KCl 2.5 and Hepes 5; pH adjusted to 7.35 with NaOH. Current-voltage relationships were measured using 1-s voltage ramps from −80 to +80 mV.
This example tests the activation of whole-cell currents in oocytes by RTX. Whole-cell currents were recorded from oocytes heterologously expressing TRPV1. […] Agonist-induced currents are shown after subtracting the leak current in the absence of the agonist. […] In order to quantify this, we calculated the ratio of outward and inward currents. […] PKC activation increases sensitivity as well as TRPV1 translocation. […] (Szallasi et al. 1990b; Caterina et al. 1997; Marshall et al. 2003.)

Assay [2] concerns the target T2, native TRPV1 (Rattus norvegicus, UniProt O35433).
T2 construct: RTX-induced membrane currents on native TRPV1 in embryonic DRG neurons grown in culture; endogenous in cells; host or cells: primary rat E18 DRG neurons
Put plainly: Whole-cell currents in cultured embryonic DRG neurons (patch clamp). In kind it is cell-based. The settings on record: capsazepine 10 μM. On the procedure: as §1
Primary DRG neuronal cultures were prepared from embryonic day 18 (E18) rat embryos. Adult pregnant rats were killed with an overdose of isoflurane. DRG were dissected and the cells were dissociated by triturating with a fire-polished glass pipette. Cells were cultured in Neurobasal medium (Life Technologies, Buffalo, N.Y., USA), supplemented with 10% fetal bovine serum (FBS), and grown on poly-D-lysine-coated glass coverslips. Cells were used from 5 to 15 days after plating. Small diameter (<30 μm) rounded neurons were selected for patch-clamp experiments. […] The Giga-seal patch-clamp technique was used to record whole-cell currents. For perforated-patch recordings, the bath solution contained (mM): sodium gluconate 140, KCl 2.5, Hepes 10, MgCl2 1 and ethylene glycol bis(2-aminoethyl ether)-N,N,N′N′-tetraacetic acid (EGTA) 1.5 (pH adjusted to 7.35 with NaOH), and the pipette solution contained (mM): sodium gluconate 130, NaCl 10, KCl 2.5, Hepes 10, MgCl2 1, EGTA 1.5 and 240 μg/ml^−1 amphotericin B (pH adjusted to 7.35 with NaOH). For current-clamp experiments the pipette solution contained (mM): potassium gluconate 130, NaCl 10, MgCl2 1, EGTA 0.2, K2ATP 1 and Hepes 10; pH adjusted to 7.35 with NaOH. Extracellular solution for current- and voltage-clamp experiments contained (mM): NaCl 140, KCl 4, MgCl2 1 and Hepes 10; pH adjusted to 7.35 with NaOH. Currents were recorded using a WPC 100 patch-clamp amplifier (E.S.F. Electronic, Goettingan, Germany). Data were filtered at 10 kHz, digitized (VR-10B, Instrutech Corp., Great Neck, N.Y., USA) and stored on videotapes or directly stored in the computer using a LabView interface. For analysis of whole-cell currents, data were filtered at 1 kHz (−3 db frequency with an 8-pole low-pass Bessel filter, Warner Instruments, LPF-8) and digitized at 2 kHz.
This example tests the activation of whole-cell current in DRG neurons by RTX. We determined the properties of RTX-induced membrane currents on native TRPV1 in embryonic DRG neurons grown in culture. […] Protons were not used to elicit currents because of the presence of acid-sensitive ion channels in these neurons.

T2 sequence (O35433 whole entry): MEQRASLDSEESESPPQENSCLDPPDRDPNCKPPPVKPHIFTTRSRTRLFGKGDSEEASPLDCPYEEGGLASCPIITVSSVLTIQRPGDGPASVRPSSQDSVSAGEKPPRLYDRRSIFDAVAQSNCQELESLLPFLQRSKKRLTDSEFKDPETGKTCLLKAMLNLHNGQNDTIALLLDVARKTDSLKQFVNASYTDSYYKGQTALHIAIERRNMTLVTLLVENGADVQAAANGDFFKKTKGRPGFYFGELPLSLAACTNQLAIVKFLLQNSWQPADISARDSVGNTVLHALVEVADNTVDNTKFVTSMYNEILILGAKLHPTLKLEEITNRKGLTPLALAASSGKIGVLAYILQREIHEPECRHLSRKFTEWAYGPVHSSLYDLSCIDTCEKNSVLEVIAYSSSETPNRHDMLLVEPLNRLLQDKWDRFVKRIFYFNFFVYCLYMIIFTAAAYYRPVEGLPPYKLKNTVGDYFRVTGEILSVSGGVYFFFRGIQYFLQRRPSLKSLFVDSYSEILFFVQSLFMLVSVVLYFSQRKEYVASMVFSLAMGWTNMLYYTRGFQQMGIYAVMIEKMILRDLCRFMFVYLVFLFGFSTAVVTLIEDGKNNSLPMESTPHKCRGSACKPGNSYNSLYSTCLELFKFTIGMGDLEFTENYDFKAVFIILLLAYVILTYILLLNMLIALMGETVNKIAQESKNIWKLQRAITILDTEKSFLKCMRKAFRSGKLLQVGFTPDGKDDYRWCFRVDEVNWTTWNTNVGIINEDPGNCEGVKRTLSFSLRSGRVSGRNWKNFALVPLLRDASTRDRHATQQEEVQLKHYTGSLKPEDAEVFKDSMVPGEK
T1 sequence (O35433 whole entry): as above

With `N.N.N.N.N.N.N.N.N.N.N.N.N.N.[Cl-].[Cl-].[Cl-].[Cl-].[Cl-].[Cl-].[O-2].[O-2].[Ru+3].[Ru+3].[Ru+4]` [ruthenium red, reference compound], the “block of RTX-induced current” value in assay [1] is listed as “readily blocked”.
In the case of `Oc1cc2c(cc1O)CN(C(=S)NCCc1ccc(Cl)cc1)CCC2` [capsazepine], the “block of current induced by capsaicin (1 μM) and RTX (10 nM)” value in assay [2] is reported as “completely blocked”. For the same compound, the “rate of block induced by capsazepine” value in assay [2] (RTX-induced (10 nM) currents) turned out to be 612.3 ± 219 s; in assay [2] (capsaicin-induced (1 μM) currents), 18.4 ± 2.8 s.
